Non-standard residues stand in square brackets, D forms with d. Residues, ends and D or L forms follow the SMILES beside them.
Experiments:
MV-411 and MOLM-13 cells = assay: qRT-PCR of BCL2 mRNA expression; format: cell-based, human; conditions: 20 μM, 6 h
Method: RNA was isolated using Trizol reagent according to the manufacturer’s instructions (Life Technologies). Complementary DNA was synthesized using the SuperScript III First-Strand Synthesis system according to the manufacturer’s instructions (Invitrogen). Quantitative real-time PCR was performed using the KAPA SYBR FAST PCR polymerase with 20 ng template and 200 nM primers, according to the manufacturer’s instructions (Kapa Biosystems, Wilmington, MA, USA). PCR primers are listed in Supplementary Table 4. Ct values were calculated using ROX normalization using the ViiA 7 software (Applied Biosystems).

AML cells = assay: Flow cytometry of differentiation markers; format: cell-based, human
Method: Cells were resuspended to a concentration of 1 × 10^6 cells were plated in triplicate in a 12-well tissue culture plate. For assessment of annexin V staining, cells were washed with PBS and then resuspended in PBS with Annexin V-APC (BioLegend) and propidium iodide at a dilution of 1:1000. For intracellular detection of cleaved caspase 3, cells were fixed and permeabilized using the BD Cytofix/Cytoperm Fixation/Permeabilization solution according to the manufacturer’s instructions (BD Biosciences). Cells were then stained using the Alexa Fluor 647-conjugated anti-active caspase-3 (BD Biosciences) at a dilution of 1:50. Cells were incubated for 30 minutes room temperature in the dark, washed, and then analyzed using the BD LSRFortessa cell analyzer. For assessment of differentiation, cells were stained using the anti-human CD14 PE at a dilution of 1:20 (Affymetrix eBiosciences) and anti-human CD66b at a dilution of 1:20 (Affymetrix eBiosciences).

[1] = system: primary patient-derived MLL-rearranged leukemia cells in NSG mice; assay: Patient-derived MLL-rearranged leukemia xenograft, treatment 3 days post transplantation, survival; format: in vivo, mouse
Method: All mouse experiments were carried out in accordance with the Memorial Sloan Kettering Institutional Animal Care and Use Committee. For toxicity studies, female C57BL/6J mice (The Jackson Laboratory, Bar Harbor, Maine, USA) were treated with MYBMIM peptide suspended in PBS and administered daily through intraperitoneal injection at a dose of 25 mg/kg for a total of 7 days. Mice were sacrificed at the end of treatment for hematologic, biochemical and histologic analyses. For pharmacokinetic studies, C57BL/6J mice (The Jackson Laboratory, Bar Harbor, Maine, USA) were treated with a single IP injection of 25 mg/kg BIO-MYBMIM, and blood plasma was collected 30 min, 2 h, 4 h, and 24 h post-injection. Quantification of BIO-MYBMIM was measured using the Quant-Tag Biotin kit (Vector Labs, cat. # BDK-2000) following the manufacturer instructions. For patient-derived xenografts, two hundred thousand primary AML MLL-rearranged leukemia cells were suspended in […] of PBS and transplanted via tail vein injection into 8-week-old sublethally irradiated (200 rad) female NOD.Cg-Prkdc(scid)Il2rg(tm1Wjl)/SzJ mice (The Jackson Laboratory, Bar Harbor, Maine, USA). […] Mice were treated from days 3–17 of this study for a total of 14 days and then monitored daily with clinical examination for survival analysis.

CBP/P300 = assay: Streptavidin affinity purification of CBP/P300 from MV-411 cell extracts with BIO-MYBMIM, with peptide competition; format: binding, human; conditions: 20-fold molar excess free peptide, MV-411 extracts, western blot
Method: Cells were lysed in RIPA buffer (Thermo Fisher) supplemented with a protease inhibitor mix comprised of AEBSF (0.5 mM concentration, Santa Cruz, SC-202041B), Bestatin (0.01 mM, Fisher/Alfa Aesar, J61106-MD), Leupeptin (0.1 mM, Santa Cruz, SC-295358B), and Pepstatin (0.001 mM, Santa Cruz, SC-45036A). Lysates were mechanically disrupted using Covaris S220 adaptive focused sonicator, according to the manufacturer’s instructions (Covaris, Woburn, CA). Lysates were cleared by centrifugation for 15 min at 18,000 × g and clarified lysates were quantified using the bicinchoninic acid assay (Pierce). Clarified lysates (20 μg of protein) were resolved using sodium dodecyl sulfate-polyacrylamide gel electrophoresis, and electroeluted using the Immobilon FL PVDF membranes (Millipore, Billerica, MA, USA). Membranes were blocked using the Odyssey Blocking buffer (Li-Cor, Lincoln, Nebraska, USA). The following primary antibodies were used as indicated: anti-MYB (1:1000, 05-175, Millipore), anti-CBP (1:1000, PA1-847, Invitrogen), anti-BCL2 (1:1000, 200-401-222, Rockland), anti-β actin (1:1000, 8H10D10, Cell Signaling). […] Blotted membranes were visualized using secondary antibodies conjugated to IRDye 800CW or IRDye 680RD (Goat anti-rabbit, 1:15,000, and goat anti-mouse, 1:15,000) and the Odyssey CLx fluorescence scanner, according to manufacturer’s instructions (Li-Cor, Lincoln, Nebraska, USA). […]

## CC[C@@H](C)[C@@H](NC(=O)[C@@H](CCCCN)NC(=O)[C@@H](CCC(=O)O)NC(=O)[C@@H](CC(C)C)NC(=O)[C@@H](CCC(=O)O)NC(=O)[C@@H](CC(C)C)NC(=O)[C@@H](CC(C)C)NC(=O)[C@@H](CC(C)C)NC(=O)[C@@H](CCSC)NC(=O)[C@@H](CO)NC(=O)[C@H](NC(=O)[C@@H](CCC(=O)O)NC(=O)[C@@H](CC(N)=O)NC(=O)[C@@H](CCC(=O)O)NC(=O)[C@@H](CC(C)C)NC(=O)[C@@H](CCCCN)NC(C)=O)[C@H](C)O)C(=O)N[C@H](CCCNC(=N)N)C(=O)N[C@H](CCCCN)C(=O)NCC(=O)NCC(=O)N[C@H](CCCNC(=N)N)C(=O)N[C@H](CCCNC(=N)N)C(=O)N[C@H](CCCNC(=N)N)C(=O)N[C@H](CCC(N)=O)C(=O)N[C@H](CCCNC(=N)N)C(=O)N[C@H](CCCNC(=N)N)C(=O)N[C@H](CCCCN)C(=O)N[C@H](CCCCN)C(=O)N[C@H](CCCNC(=N)N)C(=O)NCC(=O)N[C@H](Cc1ccc(O)cc1)C(N)=O [MYBMIM] (Ac-[dK][dL][dE][dN][dE][dT][dS][dM][dL][dL][dL][dE][dL][dE][dK][dI][dR][dK]GG[dR][dR][dR][dQ][dR][dR][dK][dK][dR]G[dY]-NH2)
MV-411 and MOLM-13 cells
  BCL2 expression downregulation: more than two-fold
AML cells
  CD14, CD66b and CD11b expression: no significant changes
[1]; NSG mice, 25 mg/kg IP twice daily, 14 days from 3 days post-transplantation, n = 15 per group, p = 3.8e-3 log-rank
  Leukemia progression and survival: significantly delayed leukemia progression and extended survival
[1]; leukemia cells from moribund MYBMIM-treated mice vs vehicle, n = 10 per group, p < 0.0001 log-rank
  Disease latency in secondary transplant recipients: significantly delayed disease latency
CBP/P300
  Displacement of cellular CBP/P300 from BIO-MYBMIM beads by free peptide: displacement of cellular CBP/P300
